# Data: patent US12053467B2, “Method of treating fibrosis” (NovMeta Pharma Co., Ltd., priority 2020, dated 2024)
# Assays:
# [1] = tested on: fibronectin; assay: Fibronectin mRNA (real-time PCR) in bleomycin-induced pulmonary fibrosis mice; type: in vivo, ICR mice; conditions: lung; 5, 25, 50 and 100 mg/kg/day oral, daily for 4 weeks; vs BLM alone (set 1.0)
# Description: (§1) Seven-week-old male ICR mice from Koatech Co. Ltd (Gyeonggi-do, Korea). All animal experiments were approved by the Ethics Review Committee of the Advanced Bio Convergence Center, Republic of Korea. Mice were housed in specific pathogen-free conditions with a 12 hr light-dark cycle and had free access to water and food. Body weight and caloric intake were monitored throughout the experiments. The mice were housed in single cage and food intake was calculated of each animals in the cage. 5 or 25 or 50 or 100 mg/kg/day CHP monohydrate, 5 mg/kg/day CHP+10 mg/kg/day Zn, or PBS (vehicle control), was orally administered daily for 4 weeks. At the conclusion of the in vivo experiment, the mice were sacrificed and tissues were collected and weighed. Tissue samples were stored at −80° C. until analysis.
# (§2) Mice maintained under anesthesia with isoflurane were intravenously administered bleomycin 75 mg/kg in saline. […]
# (§3) Total RNA was prepared by an RNeasy Mini kit (QIAGEN) according to the manufacturer's instructions. RNA integrity was assessed by an automated microfluidics-based system (Bioanalyzer 2100, Agilent, Palo Alto, CA, USA). […] A melt curve was produced to confirm a single gene-specific peak and detect primer/dimer formation by heating the samples from 65 to 95° C. in 0.5° C. increments with a dwell time at each temperature of 10 sec while continuously monitoring fluorescence. […]
# [2] = tested on: α-smooth muscle actin (aSMA); assay: αSMA mRNA (real-time PCR) in bleomycin-induced pulmonary fibrosis mice; type: in vivo, ICR mice; conditions: lung, 5, 25, 50 and 100 mg/kg/day oral, daily for 4 weeks, vs BLM alone (set 1.0)
# Description: as §1, §2, §3
# [3] = tested on: transforming growth factor-β (TGF-β); assay: TGF-β mRNA (real-time PCR) in bleomycin-induced pulmonary fibrosis mice; type: in vivo, ICR mice; conditions: lung; 5, 25, 50 and 100 mg/kg/day oral, daily for 4 weeks; vs BLM alone (set 1.0)
# Description: as §1, §2, §3
# [4] = tested on: Collagen 1 (Col1); assay: Col1 mRNA (real-time PCR) in bleomycin-induced pulmonary fibrosis mice; type: in vivo, ICR mice; conditions: lung, 5, 25, 50 and 100 mg/kg/day oral, daily for 4 weeks, vs BLM alone (set 1.0)
# Description: as §1, §2, §3
# [5] = tested on: Collagen 3 (Col3); assay: Col3 mRNA (real-time PCR) in bleomycin-induced pulmonary fibrosis mice; type: in vivo, ICR mice; conditions: lung, 5, 25, 50 and 100 mg/kg/day oral, daily for 4 weeks, vs BLM alone (set 1.0)
# Description: as §1, §2, §3
# [6] = tested on: Collagen 4 (Col4); assay: Col4 mRNA (real-time PCR) in bleomycin-induced pulmonary fibrosis mice; type: in vivo, ICR mice; conditions: lung, 5, 25, 50 and 100 mg/kg/day oral, daily for 4 weeks, vs BLM alone (set 1.0)
# Description: as §1, §2, §3
# [7] = tested on: lung hydroxyproline (collagen deposition); assay: Hydroxyproline assay of lung in bleomycin-induced IPF mice; type: in vivo, ICR mice; conditions: 5, 25, 50 and 100 mg/kg/day oral, daily for 4 weeks, vs BLM alone
# Description: as §1
# (§4) Mice maintained under anesthesia with isoflurane were intravenously administered bleomycin 75 mg/kg in saline. The first administration of CHP hydrate or CHP hydrate+Zn was performed 30 min after bleomycin administration.
# Collagen deposition was determined by measuring the total hydroxyproline (HYP) content, which was measured by a HYP assay kit according to the provided manufacturer's protocol. […] After neutralization with hydrochloric acid, the hydrolyzation products were diluted with distilled water, and assessed at 550 nm and expressed as ug/10 mg.
# [8] = tested on: fibronectin; assay: Western blot of fibronectin in bleomycin-induced pulmonary fibrosis mice; type: in vivo, ICR mice; conditions: CHP 5 mg/kg oral, daily for 4 weeks; compared to BLM group
# Description: as §1, §4
# 20-30 μg of lysates were separated on BOLT™ 4-12% Bis-Tris Plus gels with MES running buffer and transferred to nitrocellulose membranes using TRANS-BLOT® TURBO™ Transfer System (Bio-Rad). […]
# [9] = tested on: zinc absorption and uptake by muscle tissues and by intestinal segments; conditions: Life Sciences 70 (2001), 337-348; cited from earlier work
# [10] = tested on: bleomycin (BLM)-induced pulmonary fibrosis; assay: Bleomycin-induced pulmonary fibrosis mouse model, overall effect; type: in vivo, ICR mice; conditions: 5, 25, 50 and 100 mg/kg/day oral, 4 weeks; compared to BLM alone group; FIGS. 1-7
# Description: as §1, with “analysis. Mice maintained under anesthesia with isoflurane were intravenously administered bleomycin 75 mg/kg in saline. The first administration of CHP hydrate or CHP hydrate+Zn was performed 30 min after bleomycin administration.” for “analysis.”
# [11] = pKa of CHP hydrate material; type: physicochemical; conditions: characterising feature (b)
pKa [11],SMILES,relative fibronectin mRNA expression level [1],relative αSMA mRNA expression level [2],relative TGF-β mRNA expression level [3],relative Col1 mRNA expression level [4],relative Col3 mRNA expression level [5],relative Col4 mRNA expression level [6],lung hydroxyproline (HYP) content / accumulation of collagen in the lung [7],fibronectin protein levels (Western blotting) [8],zinc absorption and uptake [9],relative αSMA mRNA expression level ([2]; hydrate),relative Col1 mRNA expression level ([4]; hydrate),relative Col3 mRNA expression level ([5]; hydrate),relative Col4 mRNA expression level ([6]; hydrate),lung hydroxyproline (HYP) content / accumulation of collagen in the lung ([7]; hydrate),inflammation and fibrosis biomarkers [10]
–,"O=C1N[C@@H](Cc2cnc[nH]2)C(=O)N2CCC[C@@H]12 [CHP, Cyclo(-His-Pro)]",significantly reduces,significantly reduces,significantly reduces,significantly reduces,significantly reduces,significantly reduces,significantly reduces,dramatically reduced,enhanced,–,–,–,–,–,–
~6.4,"O=C1N[C@@H](Cc2cnc[nH]2)C(=O)N2CCC[C@@H]12 [CHP hydrate, cyclo(-His-Pro) hydrate]",–,–,–,–,–,–,–,–,–,dramatically reduced,dramatically reduced,dramatically reduced,dramatically reduced,significantly decreased,significantly decreased
